# Columns and labels:
# [1] = Metabolic stability in human liver microsomes assessed as half life; type: ADME, Microsome; conditions: for half-life: liver microsomes
# [2] = target: Human immunodeficiency virus type 1 reverse transcriptase (Human immunodeficiency virus 1, UniProt Q72547); assay: Inhibition of HIV-1 reverse transcriptase
# [3] = Cytotoxicity against African green monkey Vero E6 cells; type: toxicity, cell-based, Vero C1008; conditions: chlorocebus sabaeus
# [4] = system: SARS-CoV-2; assay: Antiviral activity against SARS CoV-2 USA-WA1/2020 clinical isolate infected in human Calu-3 cells assessed as reduction in viral infection; type: functional, organism-based; conditions: Severe acute respiratory syndrome coronavirus 2, USA-WA1/2020, Calu-3
# [5] = system: SARS-CoV-2; assay: Antiviral activity against SARS-CoV-2 2019-nCoV/USA_WA1/2020 infected in African green monkey Vero E6 cells assessed as reduction in viral replication pre-treated with compound for 30 mins followed by viral infection and measured after 48 hrs; type: functional, organism-based; conditions: Severe acute respiratory syndrome coronavirus 2, 2019-nCoV/USA_WA1/2020, Vero C1008
# [6] = system: SARS-CoV-2; assay: Antiviral activity against SARS-CoV-2 2019-nCoV/USA_WA1/2020 infected in human Caco-2 cells assessed as reduction in viral replication pre-treated with compound for 30 mins followed by viral infection and measured after 48 hrs; type: functional, organism-based; conditions: Severe acute respiratory syndrome coronavirus 2, 2019-nCoV/USA_WA1/2020, Caco-2
# [7] = system: SARS-CoV-2; assay: Antiviral activity against SARS-CoV-2 2019-nCoV/USA_WA1/2020 infected in human Huh7.5 cells assessed as reduction in viral replication pre-treated with compound for 30 mins followed by viral infection and measured after 48 hrs; type: functional, organism-based; conditions: Severe acute respiratory syndrome coronavirus 2, 2019-nCoV/USA_WA1/2020, Huh7.5
# [8] = system: SARS-CoV-2; assay: Antiviral activity against SARS-CoV-2 2019-nCoV/USA_WA1/2020 infected in human PSC-derived lung epithelial cell assessed as reduction in viral replication pre-treated with compound for 30 mins followed by viral infection and measured after 48 hrs; type: functional, organism-based; conditions: Severe acute respiratory syndrome coronavirus 2, 2019-nCoV/USA_WA1/2020, Epithelial cell
# [9] = system: SARS-CoV-2; assay: Antiviral activity against SARS-CoV-2 2019-nCoV/USA_WA1/2020 infected in human Calu-3 cells assessed as reduction in viral replication pre-treated with compound for 30 mins followed by viral infection and measured after 48 hrs; type: functional, organism-based; conditions: Severe acute respiratory syndrome coronavirus 2, 2019-nCoV/USA_WA1/2020, Calu-3
Compound,half-life [1],IC50 [2],CC50 [3],further results
C[C@H](Cn1cnc2c(N)ncnc21)OCP(=O)(O)OCCOCCCCCCCCCCCCCC#CC(F)(F)F,> 120 min,16 nM,> 100 µM,–
CCCCOCCCCCOCCCCCOCCCOP(=O)(O)CO[C@H](C)Cn1cnc2c(N)ncnc21,–,32000 nM,> 100 µM,–
CCCCCCCCCCCCCCCCSCCCOP(=O)(O)CO[C@H](C)Cn1cnc2c(N)ncnc21,–,10 nM,49.8 µM,t1/2 ([1]; microsomes): 42 min
CCCCCCCCCCCCCCCCCOCCOP(=O)(O)CO[C@H](C)Cn1cnc2c(N)ncnc21,35 min,3 nM,69.6 µM,–
CCCCCCCCCCCCCCCCCCOCCOP(=O)(O)CO[C@H](C)Cn1cnc2c(N)ncnc21,105 min,3 nM,53.8 µM,–
CCCCCCCCCCCCCCCCCCOC[C@@H](COP(=O)(O)OC[C@H]1O[C@@](C#N)(c2ccc3c(N)ncnn23)[C@H](O)[C@@H]1O)OCc1ccc(OC)c(F)c1,–,–,–,EC50 [4]: 70 nM
CCCCCCCCCCCCCCCOCCCCOP(=O)(O)CO[C@H](C)Cn1cnc2c(N)ncnc21,48 min,30 nM,> 100 µM,–
C[C@H](Cn1cnc2c(N)ncnc21)OCP(=O)(O)OCCOCCCCCCCCCCCCCCC#CC(F)(F)F,> 120 min,10 nM,> 100 µM,–
C[C@H](Cn1cnc2c(N)ncnc21)OCP(=O)(O)OCCOCCCCCCCCCCCCc1ccc(S(F)(F)(F)(F)F)cc1,> 120 min,20 nM,> 100 µM,–
CCCCCCCCCCCCCCCCCCCCOP(=O)(O)CO[C@H](C)Cn1cnc2c(N)ncnc21,49 min,127 nM,13.2 µM,–
C[C@H](Cn1cnc2c(N)ncnc21)OCP(=O)(O)O [TENOFOVIR ANHYDROUS],> 120 min,1600 nM,35.4 µM,–
CCCCCCCCCCCCCCCCCCOC[C@@H](COP(=O)(O)OC[C@H]1O[C@@](C#N)(c2ccc3c(N)ncnn23)[C@H](O)[C@@H]1O)OCc1ccc(C#N)cc1,–,–,–,EC50 [4]: 43 nM
CCCCCCCCCCCCCCCCCCOC[C@@H](COP(=O)(O)OC[C@H]1O[C@@](C#N)(c2ccc3c(N)ncnn23)[C@H](O)[C@@H]1O)OCc1cccc(C#N)c1,–,–,–,EC50 [4]: 34 nM
C[C@H](Cn1cnc2c(N)ncnc21)OCP(=O)(O)OCCOCCCCCCCCCCCCCCCCC(F)(F)F,> 120 min,10 nM,85.1 µM,–
CCCCCCCCCCCCCCOCCCCCOP(=O)(O)CO[C@H](C)Cn1cnc2c(N)ncnc21,31 min,52 nM,> 100 µM,–
CCCCCCCCCCCCCCCCCCOC[C@@H](COP(=O)(O)OC[C@H]1O[C@@](C#N)(c2ccc3c(N)ncnn23)[C@H](O)[C@@H]1O)OCc1ccccc1,–,–,–,EC50 [5]: 140 nM; EC50 [6]: 140 nM; EC50 [7]: 300 nM; EC50 [8]: 150 nM; EC50 [9]: 300 nM
CCCCCCCCOCCCCCOCCCCCOP(=O)(O)CO[C@H](C)Cn1cnc2c(N)ncnc21,12 min,4000 nM,> 100 µM,–
C[C@H](Cn1cnc2c(N)ncnc21)OCP(=O)(O)OCCOCCCCCCCCCCCCCCCC(F)(F)F,> 120 min,8 nM,> 100 µM,–
C[C@H](Cn1cnc2c(N)ncnc21)OCP(=O)(O)OCCOCCCCCCCCCCC#Cc1ccc(S(F)(F)(F)(F)F)cc1,> 120 min,10 nM,> 100 µM,–
